Test results taken from patent US20230234948A1, “CYCLOPROPYL DIHYDROQUINOLINE SULFONAMIDE COMPOUNDS” (AMGEN INC., priority 2020, published 2023).

Biological target: T1, Human NaV1.7 (Homo sapiens, UniProt Q15858)
T1 construct: expressed in transfected cells; host or cells: Spiking HEK cells (without Kir2.1 transfection)
Experiment: Ionworks Barracuda (IWB) automated patch clamp assay
Assay type: cell-based
Conditions: human NaV1.7 in HEK cells, population patch-clamp, state- and use-dependent voltage protocol; read-out: hNaV1.7 IWB-U IC50
Description: Ionworks Barracuda (IWB) Automated Patch Clamp Assay (Same Protocol for Both Human and Mouse)
Human NaV1.7 currents were recorded in population patch-clamp mode with the IWB automated electrophysiology system (Molecular Devices, LLC, Sunnyvale, Calif.). Spiking HEK cells (without Kir2.1 transfection) were cultured and prepared for recordings as previously described for IonWorks Quattro testing^1. The external solution consisted of the following (in mM): NaCl 140, KCl 5, CaCl2 2, MgCl2 1, HEPES 10, and glucose 11, pH 7.4, with N-methyl-D-glucamine at 320 mOsmol. […] From a holding potential of −110 mV, currents were elicited by a train of 26 depolarizations of 150 ms duration to −20 mV at a frequency of 5 Hz. Cells were then clamped to −20 mV for a period of 4 minutes in the presence of a single concentration of test compound. Following this compound incubation period, cells were clamped to −110 mV for three seconds to recover unbound channels and put through the same 26 pulse voltage protocol as above. Peak inward current during the 26th pulse to −20 mV in the presence of compound was divided by the peak inward current evoked by the 26th pulse to −20 mV in the absence of compound to determine percent inhibition. Concentration-response curves of percent inhibition as a function of concentration were generated to calculate IC50 values as described in Kornecook, T. J.; Yin, R.; Altmann, S.; et al. Pharmacologic Characterization of AMG8379, a Potent and Selective Small Molecule Sulfonamide Antagonist of the Voltage-Gated Sodium Channel NaV1. 7.
The potency of the compounds of the present invention were evaluated on human NaV1.7 channels using the above described IonWorks Barracuda automated electrophysiology platform that evaluates the ability of compounds to block sodium conductance through NaV1.7 channels. A voltage-protocol that prosecutes both state-dependent as well as use-dependent inhibition was used as these modes of action are thought to be more relevant for the native state of NaV1.7 channels in pain sensing neurons in vivo.

T1 sequence (Q15858 whole entry): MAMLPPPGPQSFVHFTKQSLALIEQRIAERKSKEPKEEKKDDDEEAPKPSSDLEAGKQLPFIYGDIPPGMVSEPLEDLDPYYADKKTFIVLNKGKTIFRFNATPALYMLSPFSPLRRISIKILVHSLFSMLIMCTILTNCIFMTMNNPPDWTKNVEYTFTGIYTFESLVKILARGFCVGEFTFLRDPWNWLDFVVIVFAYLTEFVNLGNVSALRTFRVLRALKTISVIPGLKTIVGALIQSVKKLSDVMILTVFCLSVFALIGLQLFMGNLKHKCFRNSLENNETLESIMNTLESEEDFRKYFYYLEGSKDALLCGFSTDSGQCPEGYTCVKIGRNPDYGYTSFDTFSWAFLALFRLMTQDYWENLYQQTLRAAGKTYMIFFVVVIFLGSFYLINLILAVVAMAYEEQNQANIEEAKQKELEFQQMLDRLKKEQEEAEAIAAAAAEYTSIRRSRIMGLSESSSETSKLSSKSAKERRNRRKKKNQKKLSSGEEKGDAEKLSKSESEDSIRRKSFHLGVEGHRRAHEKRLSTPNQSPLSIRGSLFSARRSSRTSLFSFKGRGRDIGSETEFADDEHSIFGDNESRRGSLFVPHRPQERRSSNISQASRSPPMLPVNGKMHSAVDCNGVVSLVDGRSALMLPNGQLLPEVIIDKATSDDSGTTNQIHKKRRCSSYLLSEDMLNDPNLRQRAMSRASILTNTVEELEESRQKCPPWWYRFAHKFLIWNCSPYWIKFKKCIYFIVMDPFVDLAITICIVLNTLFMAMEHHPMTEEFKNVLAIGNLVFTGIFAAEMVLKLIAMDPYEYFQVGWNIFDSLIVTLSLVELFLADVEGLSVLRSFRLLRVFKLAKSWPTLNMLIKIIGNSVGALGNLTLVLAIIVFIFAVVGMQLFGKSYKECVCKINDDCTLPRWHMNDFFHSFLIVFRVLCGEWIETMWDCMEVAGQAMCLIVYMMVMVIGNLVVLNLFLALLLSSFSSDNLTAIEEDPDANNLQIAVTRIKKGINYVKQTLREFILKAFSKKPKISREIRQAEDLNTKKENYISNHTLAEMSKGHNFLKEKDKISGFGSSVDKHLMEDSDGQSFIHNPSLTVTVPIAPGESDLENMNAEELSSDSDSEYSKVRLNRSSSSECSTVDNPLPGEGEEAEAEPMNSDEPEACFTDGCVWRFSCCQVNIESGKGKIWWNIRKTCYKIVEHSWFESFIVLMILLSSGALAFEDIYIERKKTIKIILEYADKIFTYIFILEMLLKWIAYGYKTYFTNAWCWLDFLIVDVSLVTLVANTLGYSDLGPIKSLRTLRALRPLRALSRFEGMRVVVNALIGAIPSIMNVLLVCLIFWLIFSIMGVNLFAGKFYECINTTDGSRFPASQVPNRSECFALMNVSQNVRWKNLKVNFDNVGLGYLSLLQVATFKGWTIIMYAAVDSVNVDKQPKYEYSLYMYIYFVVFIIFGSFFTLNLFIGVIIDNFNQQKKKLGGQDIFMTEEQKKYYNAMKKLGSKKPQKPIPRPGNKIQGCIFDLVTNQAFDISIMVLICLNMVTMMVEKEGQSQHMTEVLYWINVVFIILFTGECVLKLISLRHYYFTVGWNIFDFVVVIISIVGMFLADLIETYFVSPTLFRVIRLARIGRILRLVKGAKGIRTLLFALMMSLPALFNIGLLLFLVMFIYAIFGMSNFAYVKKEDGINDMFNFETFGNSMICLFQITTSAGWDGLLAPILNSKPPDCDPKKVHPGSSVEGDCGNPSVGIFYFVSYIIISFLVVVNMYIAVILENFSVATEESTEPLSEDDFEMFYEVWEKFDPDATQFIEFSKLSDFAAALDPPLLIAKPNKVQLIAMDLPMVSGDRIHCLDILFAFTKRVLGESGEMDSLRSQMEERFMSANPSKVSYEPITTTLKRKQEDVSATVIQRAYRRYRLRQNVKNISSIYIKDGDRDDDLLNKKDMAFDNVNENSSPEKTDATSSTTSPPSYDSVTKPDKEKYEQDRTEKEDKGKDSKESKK

Compound | IC50 [nM]
COc1cc(C2(C(F)(F)F)CC2)c(F)cc1-n1c(=O)ccc2cc(S(=O)(=O)Nc3ccon3)ccc21 (single isomer, unassigned) [Example 22, (P)-1-(5-fluoro-2-methoxy-4-(1-(trifluoromethyl)cyclopropyl)phenyl)-N-(isoxazol-3-yl)-2-oxo-1,2-dihydroquinoline-6-sulfonamide] | 14
COc1cc(C2(C(F)(F)F)CC2)c(F)cc1-n1c(=O)ccc2cc(S(=O)(=O)Nc3ccon3)ccc21 (single isomer, unassigned) [Example 42, (P)-1-(5-fluoro-2-methoxy-4-(1-(trifluoromethyl)cyclopropyl)phenyl)-N-(isoxazol-3-yl)-2-oxo-1,2-dihydroquinoline-6-sulfonamide] | 20
COc1cc(C2(C(F)(F)F)CC2)c(F)cc1-n1c(=O)ccc2cc(S(=O)(=O)Nc3ccon3)ccc21 (single isomer, unassigned) [Example 43, (M)-1-(5-fluoro-2-methoxy-4-(1-(trifluoromethyl)cyclopropyl)phenyl)-N-(isoxazol-3-yl)-2-oxo-1,2-dihydroquinoline-6-sulfonamide] | 1630

Compounds with a lower IC50, results first:

IC50 [nM] | Compound
13 | COc1cc([C@H]2C[C@@H]2C(F)(F)F)c(C)cc1-n1c(=O)ccc2cc(S(=O)(=O)Nc3ccon3)ccc21 (single isomer, unassigned) [Example 27]
11 | COc1cc([C@H]2C[C@@H]2C(F)(F)F)c(F)cc1-n1c(=O)ccc2cc(S(=O)(=O)Nc3ccon3)c(F)cc21 (single isomer, unassigned) [Example 46]
